Patent US20230219986A1, “NOVEL AMINOPYRIMIDINE EGFR INHIBITOR” (QILU PHARMACEUTICAL CO., LTD., priority 2020, published 2023)

How the values were obtained:
[1] = molecular target: T1, wild-type EGFR (Homo sapiens, UniProt P00533); assay: Enzymology experiment in vitro (HTRF/FRET kinase activity), wild-type EGFR; format: biochemical; details: HTRF KinEASE-TK, read-out: EGFR (WT) IC50
T1 construct: purchased Signalchem
How it was run: (§1)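 Kinase reaction run 40 min at room temperature with peptide and ATP after a 10 min compound–enzyme preincubation. Phosphorylation read as HTRF signal after 1 h with Eu³⁺ antibody, XL665-streptavidin and EDTA (Cisbio KinEASE-TK).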

[2] = molecular target: T2, L858R/T790M/C797S triple mutant EGFR (Homo sapiens, UniProt P00533, C797S/L858R/T790M); assay: Enzymology experiment in vitro (HTRF/FRET kinase activity), L858R/T790M/C797S triple mutant EGFR; format: biochemical; details: HTRF KinEASE-TK, read-out: EGFR (L858R/T790M/C797S) IC50
T2 construct: purchased Signalchem
How it was run: as §1

[3] = tested on: EGFR wild-type cell line A431; assay: Cell proliferation inhibition experiment (CellTiter-Glo), A431; format: cell-based; details: Homo sapiens, A-431, 72 h, A431 cells, Cell Titer-Glo, read-out: A431 EGFR WT IC50
How it was run: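 Luminescent CellTiter-Glo readout, 30 min at room temperature, after 72 h compound exposure at 37° C., 5% CO2 with 0.1% DMSO final. EGFR wild-type A431 cells were seeded at 800 per well and grown 24 h before dosing. IC50 derived from the dose-response.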

[4] = molecular target: Ba/F3 De119/T790M/C797S EGFR triple mutant cell line (Homo sapiens, UniProt P00533, T790M/C797S, cells depend on it, form not given); assay: Cell proliferation inhibition experiment (CellTiter-Glo), Ba/F3 De119/T790M/C797S; format: cell-based; details: Ba/F3 Del19/T790M/C797S EGFR triple mutant cells, 72 hours, Cell Titer-Glo; read-out: Ba/F3 (Del19/T790M/C797S) IC50
[5] = molecular target: Ba/F3 L858R/T790M/C797S EGFR triple mutant cell line (Homo sapiens, UniProt P00533, T790M/C797S/L858R, cells depend on it); assay: Cell proliferation inhibition experiment (CellTiter-Glo), Ba/F3 L858R/T790M/C797S; format: cell-based; details: 72 hours, Cell Titer-Glo, read-out: Ba/F3 (L858R/T790M/C797S) IC50
Ba/F3 L858R/T790M/C797S EGFR triple mutant cell line, sequence (P00533 whole entry T790M/C797S/L858R): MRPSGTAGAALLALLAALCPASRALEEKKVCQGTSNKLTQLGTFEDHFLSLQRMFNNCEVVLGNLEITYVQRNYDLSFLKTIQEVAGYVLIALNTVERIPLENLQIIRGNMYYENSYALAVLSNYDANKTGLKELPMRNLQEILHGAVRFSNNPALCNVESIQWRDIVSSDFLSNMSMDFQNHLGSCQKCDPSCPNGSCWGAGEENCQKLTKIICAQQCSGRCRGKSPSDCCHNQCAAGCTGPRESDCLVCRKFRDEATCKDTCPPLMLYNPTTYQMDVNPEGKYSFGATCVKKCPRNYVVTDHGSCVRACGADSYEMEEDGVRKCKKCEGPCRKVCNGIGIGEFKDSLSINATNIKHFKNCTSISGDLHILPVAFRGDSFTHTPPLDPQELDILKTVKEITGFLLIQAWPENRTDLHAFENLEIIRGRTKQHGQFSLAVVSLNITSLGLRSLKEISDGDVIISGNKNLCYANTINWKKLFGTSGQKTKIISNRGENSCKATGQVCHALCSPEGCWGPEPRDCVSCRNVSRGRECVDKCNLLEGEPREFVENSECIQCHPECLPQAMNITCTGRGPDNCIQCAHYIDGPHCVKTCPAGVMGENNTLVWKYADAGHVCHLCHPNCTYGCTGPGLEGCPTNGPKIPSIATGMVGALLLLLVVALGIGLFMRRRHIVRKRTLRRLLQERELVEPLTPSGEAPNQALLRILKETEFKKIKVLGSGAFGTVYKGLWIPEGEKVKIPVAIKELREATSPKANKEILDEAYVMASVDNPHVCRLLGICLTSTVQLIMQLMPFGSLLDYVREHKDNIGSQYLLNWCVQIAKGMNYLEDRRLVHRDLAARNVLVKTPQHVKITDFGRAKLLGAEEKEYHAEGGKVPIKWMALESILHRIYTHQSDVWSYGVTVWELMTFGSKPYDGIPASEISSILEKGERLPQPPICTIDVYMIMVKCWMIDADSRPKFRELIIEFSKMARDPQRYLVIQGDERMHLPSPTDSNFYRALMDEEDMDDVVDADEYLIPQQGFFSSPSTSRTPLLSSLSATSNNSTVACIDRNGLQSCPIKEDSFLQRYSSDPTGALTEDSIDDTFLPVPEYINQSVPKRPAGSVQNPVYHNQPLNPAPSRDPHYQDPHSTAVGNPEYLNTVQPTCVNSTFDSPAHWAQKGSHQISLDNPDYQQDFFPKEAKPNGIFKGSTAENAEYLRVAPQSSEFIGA

T1 sequence (P00533 25-1210): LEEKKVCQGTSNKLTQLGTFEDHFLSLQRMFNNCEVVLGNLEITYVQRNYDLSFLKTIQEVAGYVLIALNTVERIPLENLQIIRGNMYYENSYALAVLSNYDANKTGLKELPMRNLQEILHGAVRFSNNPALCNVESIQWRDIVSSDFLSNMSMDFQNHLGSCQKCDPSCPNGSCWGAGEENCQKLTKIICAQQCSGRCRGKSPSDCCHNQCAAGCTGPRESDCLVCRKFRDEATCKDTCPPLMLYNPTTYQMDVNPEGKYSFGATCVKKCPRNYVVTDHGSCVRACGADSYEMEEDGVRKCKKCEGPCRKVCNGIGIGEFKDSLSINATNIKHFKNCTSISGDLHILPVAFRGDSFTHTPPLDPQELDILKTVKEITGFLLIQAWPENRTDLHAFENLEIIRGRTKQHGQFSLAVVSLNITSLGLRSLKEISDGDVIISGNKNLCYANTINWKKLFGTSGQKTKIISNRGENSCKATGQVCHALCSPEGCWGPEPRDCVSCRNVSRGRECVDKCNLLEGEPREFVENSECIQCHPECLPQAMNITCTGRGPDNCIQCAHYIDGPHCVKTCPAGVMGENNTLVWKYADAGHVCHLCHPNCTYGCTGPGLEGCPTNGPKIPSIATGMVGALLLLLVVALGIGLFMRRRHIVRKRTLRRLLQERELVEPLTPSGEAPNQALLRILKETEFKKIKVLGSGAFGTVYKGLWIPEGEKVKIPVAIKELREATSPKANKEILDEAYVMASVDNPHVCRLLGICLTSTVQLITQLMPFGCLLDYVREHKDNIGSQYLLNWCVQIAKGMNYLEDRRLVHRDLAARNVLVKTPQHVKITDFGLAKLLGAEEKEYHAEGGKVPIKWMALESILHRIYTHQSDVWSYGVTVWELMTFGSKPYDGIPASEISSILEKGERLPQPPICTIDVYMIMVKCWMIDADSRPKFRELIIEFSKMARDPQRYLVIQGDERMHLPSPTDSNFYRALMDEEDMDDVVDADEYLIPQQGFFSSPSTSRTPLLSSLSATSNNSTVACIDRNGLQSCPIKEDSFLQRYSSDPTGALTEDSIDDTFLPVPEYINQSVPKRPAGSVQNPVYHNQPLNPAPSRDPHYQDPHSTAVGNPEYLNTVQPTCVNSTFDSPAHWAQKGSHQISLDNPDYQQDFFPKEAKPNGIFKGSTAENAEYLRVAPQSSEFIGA
Ba/F3 De119/T790M/C797S EGFR triple mutant cell line, sequence (P00533 with tags, fused parts or gaps DEL746-750/T790M/C797S, form open): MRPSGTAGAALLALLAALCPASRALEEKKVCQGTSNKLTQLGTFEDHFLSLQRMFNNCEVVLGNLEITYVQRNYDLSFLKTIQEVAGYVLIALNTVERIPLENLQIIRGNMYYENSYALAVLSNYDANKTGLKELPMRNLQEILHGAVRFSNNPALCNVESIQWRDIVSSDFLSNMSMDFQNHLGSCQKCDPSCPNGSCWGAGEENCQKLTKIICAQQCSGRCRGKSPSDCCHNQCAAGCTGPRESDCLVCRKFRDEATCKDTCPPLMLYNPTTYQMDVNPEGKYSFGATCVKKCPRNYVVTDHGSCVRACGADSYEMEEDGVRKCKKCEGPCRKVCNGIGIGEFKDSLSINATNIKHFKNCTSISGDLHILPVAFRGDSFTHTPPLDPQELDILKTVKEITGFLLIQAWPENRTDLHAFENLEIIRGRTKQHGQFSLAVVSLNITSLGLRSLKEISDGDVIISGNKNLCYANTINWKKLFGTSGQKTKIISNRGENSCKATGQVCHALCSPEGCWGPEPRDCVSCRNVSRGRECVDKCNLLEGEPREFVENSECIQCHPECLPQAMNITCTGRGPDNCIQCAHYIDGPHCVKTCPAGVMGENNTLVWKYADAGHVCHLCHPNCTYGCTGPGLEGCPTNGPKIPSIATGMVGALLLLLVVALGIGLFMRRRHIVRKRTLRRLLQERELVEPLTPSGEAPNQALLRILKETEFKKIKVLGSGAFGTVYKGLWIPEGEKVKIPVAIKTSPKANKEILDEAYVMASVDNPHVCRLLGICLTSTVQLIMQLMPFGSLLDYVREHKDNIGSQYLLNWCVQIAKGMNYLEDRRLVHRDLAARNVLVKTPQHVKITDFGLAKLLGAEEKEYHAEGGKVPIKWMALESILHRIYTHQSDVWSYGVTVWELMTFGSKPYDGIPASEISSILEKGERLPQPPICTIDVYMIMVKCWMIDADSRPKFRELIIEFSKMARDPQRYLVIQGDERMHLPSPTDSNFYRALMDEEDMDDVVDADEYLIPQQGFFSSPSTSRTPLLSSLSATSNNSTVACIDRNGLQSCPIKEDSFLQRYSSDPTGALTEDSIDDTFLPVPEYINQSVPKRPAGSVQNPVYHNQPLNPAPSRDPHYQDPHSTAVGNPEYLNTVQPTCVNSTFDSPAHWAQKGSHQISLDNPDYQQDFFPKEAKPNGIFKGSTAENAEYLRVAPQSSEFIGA
T2 sequence (P00533 25-1210 T790M/C797S/L858R): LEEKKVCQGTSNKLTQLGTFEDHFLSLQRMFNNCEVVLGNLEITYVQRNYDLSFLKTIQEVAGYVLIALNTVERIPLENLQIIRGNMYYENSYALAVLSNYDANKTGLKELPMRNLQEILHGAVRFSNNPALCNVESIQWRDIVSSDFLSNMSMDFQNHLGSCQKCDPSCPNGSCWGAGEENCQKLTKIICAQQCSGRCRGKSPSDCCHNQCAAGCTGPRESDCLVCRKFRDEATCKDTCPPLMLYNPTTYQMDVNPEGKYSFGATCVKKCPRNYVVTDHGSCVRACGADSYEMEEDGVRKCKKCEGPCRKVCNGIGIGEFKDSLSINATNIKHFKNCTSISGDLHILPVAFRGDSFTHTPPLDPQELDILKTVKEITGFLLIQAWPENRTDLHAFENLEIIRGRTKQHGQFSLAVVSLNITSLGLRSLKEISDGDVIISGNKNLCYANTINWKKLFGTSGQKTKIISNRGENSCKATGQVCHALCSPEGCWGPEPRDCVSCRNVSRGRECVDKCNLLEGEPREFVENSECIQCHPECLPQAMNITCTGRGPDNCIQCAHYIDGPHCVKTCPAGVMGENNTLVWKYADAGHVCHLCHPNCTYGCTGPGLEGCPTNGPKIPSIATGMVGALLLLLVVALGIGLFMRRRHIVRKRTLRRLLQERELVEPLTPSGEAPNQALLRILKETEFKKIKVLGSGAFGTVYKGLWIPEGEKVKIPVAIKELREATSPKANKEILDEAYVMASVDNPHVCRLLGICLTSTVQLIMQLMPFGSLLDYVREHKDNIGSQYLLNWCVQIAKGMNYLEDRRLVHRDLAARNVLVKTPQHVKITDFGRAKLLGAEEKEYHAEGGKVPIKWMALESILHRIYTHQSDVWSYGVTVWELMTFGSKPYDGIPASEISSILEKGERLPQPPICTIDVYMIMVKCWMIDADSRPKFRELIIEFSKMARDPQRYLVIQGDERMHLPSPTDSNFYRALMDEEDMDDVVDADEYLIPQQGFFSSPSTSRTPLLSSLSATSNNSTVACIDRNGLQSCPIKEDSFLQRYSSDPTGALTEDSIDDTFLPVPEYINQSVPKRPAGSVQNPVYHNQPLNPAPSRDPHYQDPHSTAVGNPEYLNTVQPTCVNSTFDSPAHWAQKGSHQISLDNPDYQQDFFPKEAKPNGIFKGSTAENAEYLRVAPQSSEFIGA

SMILES | IC50 [1] | IC50 [2] | IC50 [3] | GI50 [4] | GI50 [5]
COc1c(Nc2ncc(Br)c(Nc3ccc4nccnc4c3P(C)(C)=O)n2)cc(-c2cnn(C)c2)c(N2CCC(N3CCN(C)CC3)CC2)c1F [compound 93] | 23.1 nM | 0.18 nM | 178 nM | 12.5 nM | 27 nM
COc1cc(N2CCS(=O)(=O)CC2)c(-c2cnn(C)c2)cc1Nc1ncc(Br)c(Nc2ccc3nccnc3c2P(C)(C)=O)n1 [compound 94] | 2.78 nM | 0.15 nM | 168 nM | 6.99 nM | 28.8 nM
COc1cc(N2CCOCC2)c(-c2cn[nH]c2)cc1Nc1ncc(C)c(Nc2ccc3nccnc3c2P(C)(C)=O)n1 [compound 97] | 1.02 nM | 0.15 nM | 406 nM | 6.64 nM | 25.5 nM
COc1cc(N2CCC(N3CCN(C)CC3)CC2)c(-c2cscn2)cc1Nc1ncc(Br)c(Nc2ccc3nccnc3c2P(C)(C)=O)n1 [compound 98] | 16.2 nM | 0.82 nM | 177 nM | 11 nM | 27.8 nM
COc1cc(N2CCC3(CCN(C)CC3)CC2)c(-c2cnn(C)c2)cc1Nc1ncc(Br)c(Nc2ccc3nccnc3c2P(C)(C)=O)n1 [compound 101] | 0.41 nM | 0.18 nM | 46.1 nM | 2.87 nM | 4.53 nM
COc1cc(N2CCN(C3CC3)CC2)c(-c2cnn(C)c2)cc1Nc1ncc(Br)c(Nc2ccc3nccnc3c2P(C)(C)=O)n1 [compound 102] | 1.49 nM | 0.23 nM | 108 nM | 0.76 nM | 2.02 nM
COc1cc(N2CCN(CCF)CC2)c(-c2cnn(C)c2)cc1Nc1ncc(Br)c(Nc2ccc3nccnc3c2P(C)(C)=O)n1 [compound 103] | 1.57 nM | 0.13 nM | 152 nM | 0.51 nM | 5.02 nM
COc1cc(N2CCOC[C@H]2C)c(-c2cnn(C)c2)cc1Nc1ncc(Br)c(Nc2ccc3nccnc3c2P(C)(C)=O)n1 [compound 104] | 27.2 nM | 0.95 nM | 192 nM | 4.07 nM | 17.7 nM

Now from value to compound:

IC50 [1] | IC50 [2] | IC50 [3] | GI50 [4] | GI50 [5] | SMILES
5.62 nM | 0.16 nM | 1190 nM | 20.9 nM | 61.9 nM | COc1cc(N2CCNC(=O)C2)c(-c2cnn(C)c2)cc1Nc1ncc(Br)c(Nc2ccc3nccnc3c2P(C)(C)=O)n1 [compound 105]
26.4 nM | 1.3 nM | 380 nM | 11.2 nM | 30.9 nM | COc1cc(N2C[C@@H]3C[C@H]2CO3)c(-c2cnn(C)c2)cc1Nc1ncc(Br)c(Nc2ccc3nccnc3c2P(C)(C)=O)n1 [compound 107]
1.54 nM | 0.57 nM | 162 nM | 3.7 nM | 10.9 nM | COc1cc(N2CCN(S(C)(=O)=O)CC2)c(-c2cnn(C)c2)cc1Nc1ncc(Br)c(Nc2ccc3nccnc3c2P(C)(C)=O)n1 [compound 110]
5.65 nM | 1.38 nM | 210 nM | 3.22 nM | 4.79 nM | COc1cc(N2C[C@@H](C)O[C@@H](C)C2)c(-c2cnn(C)c2)cc1Nc1ncc(Br)c(Nc2ccc3nccnc3c2P(C)(C)=O)n1 [compound 111]
0.92 nM | 0.26 nM | 1100 nM | 57 nM | 161 nM | COc1cc(N2CCN(C(N)=O)CC2)c(-c2cnn(C)c2)cc1Nc1ncc(Br)c(Nc2ccc3nccnc3c2P(C)(C)=O)n1 [compound 112]
5.41 nM | 0.56 nM | 271 nM | 5.86 nM | 11.2 nM | COc1cc(N2C[C@H]3C[C@@H]2CO3)c(-c2cnn(C)c2)cc1Nc1ncc(Br)c(Nc2ccc3nccnc3c2P(C)(C)=O)n1 [compound 114]
1.65 nM | 0.4 nM | 159 nM | 6.53 nM | 16.1 nM | COc1cc(N2CCOC(CO)C2)c(-c2cnn(C)c2)cc1Nc1ncc(Br)c(Nc2ccc3nccnc3c2P(C)(C)=O)n1 (stereo not drawn) [compound 115]
